Assay results as given in US20260167659A1, “STING AGONISTS” (LIGACHEM BIOSCIENCES INC., priority 2022, published 2026).

What was measured:
hSTING H232 variant = target: T1, hSTING H232 variant (Homo sapiens, UniProt Q86WV6); test: STING activation, THP1-Dual IRF3 reporter assay, hSTING-H232 cells; format: cell-based; conditions: IRF3 luciferase reporter, 24 hours, read-out: STING activity using hSTING-H232 cells, H232 EC50
T1 construct: host or cells: THP1-Dual cells (human monocytes) with knocked-in hSTING H232
Procedure: To assess potency of STING agonist compounds described herein, THP1-Dual™ Cells (NF—KB-SEAP and IRF-Lucia luciferase reporter monocytes, InvivoGen) were used. The reporter cells were knocked-in either of hSTING-WT (R232, #thpd-r232), HAQ variant (#thpd-nfis), or H232 variant (#thpd-h232). All cells were cultured at 37° C. in a humidified incubator at 5% CO2 and maintained in RPMI 1640 medium (Gibco, #22400097) supplemented with 10% heat-inactivated FBS and 1×Pen-Strep (Gibco, #15140122). To measure STING agonist-mediated IRF3 activity, the cells (9.0×10^4 cells per well) were seeded in a flat-bottomed 96-well plate. The next day, the cells were treated with compounds in a serial dilution for 24 hours. Subsequently, 20 μL of the cell culture supernatant and 50 μL of the QUANTI-Luc™ reagent (InvivoGen, #rep-qlc) were mixed in a 96-well white plate and then, luciferase activity was measured using an EnVision Xcite multilabel reader. The data were analyzed using Prism8 software (4-parameter).
The potency of STING agonist compounds was evaluated by the activation of Type I Interferon pathway using THP-1 IRF3 reporter assay.

human STING = target: T2, human STING (Homo sapiens, UniProt Q86WV6, H232R); test: Direct STING binding, HUMAN STING WT BINDING KIT (Cisbio); conditions: direct binding to human STING WT protein in vitro; read-out: Binding potency EC50
T2 construct: purchased Cisbio 64BDSTGPEG
From the text: Additionally, for analysis of direct binding potency of STING agonist compounds described herein to human STING, HUMAN STING WT BINDING KIT (Cisbio, #64BDSTGPEG) was used according to the manufacture's instruction.

Human THP-1 cells = test: THP-1 activation, CD86 and HLA-DR by flow cytometry; format: cell-based; conditions: THP-1, 5-fold serial dilution from 1 μM, 48 hours
Procedure: To test the effect of STING agonist compounds described herein in the activation of innate and adaptive immune cells, flow cytometry (FACS) was performed. Human THP-1 cells (Korean Cell Line Bank, #40202) and PBMCs were seeded at 1.2×10^5 cells per well in a round-bottomed 96-well plate in RPMI 1640 medium (Gibco, #22400097) supplemented with 10% heat-inactivated FBS and 1× Antibiotic-Antimycotic (Gibco, #15240062) and rested for 24 hours at 37° C. The cells were stimulated with the STING agonist compounds as described; For THP-1 stimulation, the cells were treated with the STING agonist compound (Compound 313) in a 5-fold serial dilution from 1 μM for 48 hours. The induction of cell surface activation markers, CD86 (co-stimulatory molecule) and HLA-DR (MHC-class II), was measured by flow cytometry. […] For flow cytometry analysis, the stimulated cells were centrifuged at 300 g for 5 minutes at 4° C., and then resuspended in FACS buffer (2% FBS, 2 mM EDTA in PBS). […] Subsequently, the cells were stained with fluorescence-conjugated antibodies against CD8, CD3, CD56, and CD69 for CD8 T and NK cells activation and against CD86 and MHC-II for THP-1 naïve cells activation for 40 minutes at 4° C. After washing three times with FACS buffer, the cells were resuspended in FACS buffer and analyzed by FACSlyric (BD bioscience). The data were analyzed with Flowjo 9.0 software (BD bioscience).

[1] = Normal cell cytotoxicity in CD34+ HSC, CellTiter-Glo; format: cell-based; conditions: human, CD34+ hematopoietic stem cells (HSCs), read-out: In vitro cell cytotoxicity in CD34+ HSC CC50
Procedure: The CD34^+ hematopoietic stem cells (HSCs) were purchased from […]™ (#70002.3). The cells (2×10^4 cells per well) were cultured in StemSpan™ SFEM II medium supplemented with StemSpan™ CD34+ Expansion Supplement (#02691) in a 6-well plate at 37° C. for 7 days. On day 3 or 4, an equal volume of fresh complete medium was added into the cell culture. On day 7, the cells (4×10^4 cells per well) were seeded in a 96-well white plate and rested for 24 hours in the same condition.
After 72 hours, the cell viability was measured using CellTiter-Glo Luminescent Cell Viability Assay (Promega, #G7573) according to the manufacture's instruction. The signal was detected using an EnVision Xcite multilabel reader and data were analyzed using GraphPad Prism 8 software.

EMT6 cells = test: In vivo efficacy, EMT6 syngeneic mouse model; parameters: species or system BALB/c mice; conditions: FIG. 12
Procedure: Female BALB/c mice (KOTECH, South Korea) with 6 weeks of age, were used for all studies that were completed under the approval of the Legochembio Science's Institutional Animal Care and Use Committee (IACUC). CT26 or EMT6 cells (American Type Culture Collection (ATCC), #CRL-2638, #CRL-2755) were maintained in RPMI 1640 medium (Gibco, #22400097) supplemented with 10% heat-inactivated FBS and 1× Antibiotic-Antimycotic (Gibco, #15240062) at 37° C. with 5% CO2. The mycoplasma-negative cells were used for all experiments and mycoplasma test was done regularly using e-Myco™ VALiD Mycoplasma PCR Detection Kit (iNtRON biotechnology, #25239). CT26 cells (2×10^5 cells/mouse) or EMT6 cells (5×10^5 cells/mouse) in PBS were implanted subcutaneously into the shaved right flank. Tumor volumes and body weights were measured every 3 to 4 days, and the tomor volumes were calculated according to the formula 0.5×(length)×(width)^2.
Specifically, to determine in vivo efficacy of STING agonist compounds (Compound 214 and 221) in CT26 syngeneic mouse model, when tumor volume reached 70 mm^3, each compound was given at 1.5 mg/kg intravenously every 3 or 4 days (total three times). […] To determine in vivo efficacy of STING agonist compound (Compound 313) in EMT6 syngeneic mouse model, when tumor volume 100 mm^3, the compound was given at the indicated doses intravenously once weekly for 3 weeks except for the dose at 0.05 mg/kg twice a week.
A syngeneic system was used to assess the ability of the STING agonist compounds to induce immune responses and drive an anti-tumor immune response. In both CT26 and EMT6 syngeneic models, the STING agonist compounds remarkably controlled tumor growth at various doses (FIGS. 7 to 12).
Compound 313 also eliminated tumors in all groups (1 out of 5 for 0.05 mg/kg, 2 out of 5 for 0.1 mg/kg, 5 out of 5 for both 0.3 and 0.6 mg/kg) in EMT6 model (FIG. 12).

T2 sequence (Q86WV6 whole entry H232R): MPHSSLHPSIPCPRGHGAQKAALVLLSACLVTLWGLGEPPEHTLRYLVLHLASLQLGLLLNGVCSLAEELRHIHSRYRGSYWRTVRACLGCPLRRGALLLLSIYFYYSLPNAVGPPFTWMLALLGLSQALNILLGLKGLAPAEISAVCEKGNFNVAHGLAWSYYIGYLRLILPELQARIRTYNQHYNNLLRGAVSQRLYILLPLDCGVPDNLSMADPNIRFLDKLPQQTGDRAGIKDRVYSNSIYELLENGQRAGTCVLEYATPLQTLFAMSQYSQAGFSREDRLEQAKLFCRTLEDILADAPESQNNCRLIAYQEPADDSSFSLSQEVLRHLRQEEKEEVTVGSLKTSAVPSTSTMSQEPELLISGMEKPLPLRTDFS

SMILES: CCn1nc(C)cc1C(=O)Nc1nc2cc(C(N)=O)cc(OC/C=C/Cn3cc(NC(=O)OCc4ccc(O[C@@H]5O[C@H](C(=O)O)[C@@H](O)[C@H](O)[C@H]5O)c(C(=O)NCCOCCOCCN(C)C)c4)cn3)c2n1C/C=C/Cn1c(NC(=O)c2cc(C)nn2CC)nc2cc(C(N)=O)cc(OCCCC(=O)O)c21 [Compound 313]
- EC50 (hSTING H232 variant): 216 nM
- EC50 (human STING): 0.08 nM
- co-stimulatory molecule CD86 on cell surface (Human THP-1 cells; FIG. 3A): Up-regulation
- MHC class II molecule HLA-DR on cell surface (Human THP-1 cells; FIG. 3B): Up-regulation
- CC50 at 72 h [1]: 44.5 nM
- mice with tumors eliminated (EMT6 cells; 0.05 mg/kg intravenously twice a week): 1 out of 5
- mice with tumors eliminated (EMT6 cells; 0.1 mg/kg intravenously once weekly for 3 weeks): 2 out of 5
- mice with tumors eliminated (EMT6 cells; 0.3 mg/kg intravenously once weekly for 3 weeks): 5 out of 5
- mice with tumors eliminated (EMT6 cells; 0.6 mg/kg intravenously once weekly for 3 weeks): 5 out of 5
